Where a name gives a salt, the structure may show the parent alone.

Common to all, as to details: stereoisomer not certain
The nature of series [1]: RP, Merck Supelco Ascentis Express C18, 100 × 2.1 mm, 2 µm, 40 °C, 0.2 mL/min, estimated dead time 1.1 min; A: water + 0.1% formic acid, pH 3; B: acetonitrile + 0.1% formic acid, pH 3; gradient (min/%B) 0/5 2/5 17/99.9 20/99.9.
Series [2] is described as follows: RP, Merck Supelco Ascentis Express C18, 100 × 2.1 mm, 2 µm, 40 °C, 0.4 mL/min, estimated dead time 0.55 min; A: water + 0.1% formic acid, pH 3; B: acetonitrile + 0.1% formic acid, pH 3; gradient (min/%B) 0/5 2/5 17/99.9 20/99.9.
The nature of series [3]: RP, Merck Supelco Ascentis Express C18, 100 × 2.1 mm, 2 µm, 40 °C, 0.35 mL/min, estimated dead time 0.63 min; A: water + 0.1% formic acid, pH 3; B: acetonitrile + 0.1% formic acid, pH 3; gradient (min/%B) 0/5 2/5 17/99.9 20/99.9.
Series [4] is described as follows: RP, Merck Supelco Ascentis Express C18, 100 × 2.1 mm, 2 µm, 40 °C, 0.2 mL/min, estimated dead time 1.1 min; A: water + 0.1% formic acid, pH 3; B: acetonitrile + 0.1% formic acid, pH 3; gradient (min/%B) 0/5 2/5 17/99.9 20/99.9. This is another data set of the same source.
Series [5] is described as follows: RP, Merck Supelco Ascentis Express C18, 100 × 2.1 mm, 2 µm, 40 °C, 0.4 mL/min, estimated dead time 0.55 min; A: water + 0.1% formic acid, pH 3; B: acetonitrile + 0.1% formic acid, pH 3; gradient (min/%B) 0/5 2/5 17/99.9 20/99.9. This is another data set of the same source.
Series [6] can be described thus: RP, Merck Supelco Ascentis Express C18, 100 × 2.1 mm, 2 µm, 39 °C, 0.3 mL/min, estimated dead time 0.73 min; A: water + 0.1% formic acid, pH 3; B: acetonitrile + 0.1% formic acid, pH 3; gradient (min/%B) 0/5 2/5 17/99.9 20/99.9.
A short description of series [7]: RP, Merck Supelco Ascentis Express C18, 100 × 2.1 mm, 2 µm, 40 °C, 0.25 mL/min, estimated dead time 0.88 min; A: water + 0.1% formic acid, pH 3; B: acetonitrile + 0.1% formic acid, pH 3; gradient (min/%B) 0/5 2/5 17/99.9 20/99.9.

`CCCCCCCCCC(C)=O` [2-UNDECANONE]: the LC retention time is 9.69 min in series [1], 8.13 min in series [2] and 8.4 min in series [3].
The corresponding values for `O=C(O)C(O)c1ccc(O)c(O)c1` (stereo unspecified) [3,4 DIHYDROXYMANDELATE] are 1.41 min, 0.677 min and 0.79 min.
Take `OCC(O)c1ccc(O)c(O)c1` (stereo unspecified) [3,4-DIHYDROXYPHENYLGLYCOL]: the LC retention time was 1.39 min in series [1], 0.663 min in series [2] and 0.783 min in series [3].
For `O=Cc1cccc(O)c1` [3-HYDROXYBENZALDEHYDE], the figures for the LC retention time in series [1], in series [2] and in series [3] were 5.47 min, 3.59 min and 3.94 min, respectively.
The corresponding values for `OCc1cccc(O)c1` [3-HYDROXYBENZYL ALCOHOL] are 3.97 min, 2.02 min and 2.33 min.
The corresponding values for `COc1cc(C(O)C(=O)O)ccc1O` (stereo unspecified) [3-METHOXY-4-HYDROXYMANDELATE] are 2.12 min, 1.04 min and 1.21 min.
On the same counts, the results for `CCC(C)C(=O)C(=O)O` (stereo unspecified) [3-METHYL-2-OXOVALERATE] are 4.64 min, 2.54 min and 2.96 min.
Regarding `Nc1ccc(C(=O)O)cc1` [4-AMINOBENZOATE], the values for the LC retention time in series [1], in series [2] and in series [3] were 5.87 min, 3.93 min and 4.3 min, respectively.
For `COc1cc(C(O)CO)ccc1O` (stereo unspecified) [4-HYDROXY-3-METHOXYPHENYLGLYCOL], the results for the LC retention time in series [2] and in series [3] were 1.07 min and 1.21 min, respectively.
Regarding `Nc1ccccc1C(=O)O` [ANTHRANILATE], the LC retention time in series [1] was 5.87 min; in series [2], 3.93 min; in series [3], 4.29 min.
Regarding `CCCCCCCCCCCCCCCCCCCC(=O)O` [ARACHIDATE], the LC retention time in series [2] is 17.9 min; in series [3], 18.3 min.
For the molecule `CCCCCCCC(=O)O` [CAPRYLATE], the LC retention time in series [4] is 10.7 min; in series [5], 8.82 min; in series [6], 9.52 min; in series [7], 10 min; in series [3], 9.28 min.
In the case of `CCCCCCCCCC(=O)O` [DECANOATE], the LC retention time in series [1] is 12.8 min; in series [4], 12.7 min; in series [5] it was 10.8 min; in series [6] it was 11.5 min; in series [7], 12 min.
Take `Nc1ncnc2c1ncn2C1CC(O)C(CO)O1` (stereo unspecified) [DEOXYADENOSINE]: the LC retention time in series [4] was 1.38 min; in series [5], 0.667 min; in series [6] it was 0.883 min; in series [7] it was 1.09 min; in series [3] it was 0.77 min.
In the case of `CC(CCC(=O)O)C1CCC2C3CCC4CC(O)CCC4(C)C3CC(O)C12C` (stereo unspecified) [DEOXYCHOLATE], the LC retention time in series [3] was 10.8 min.
`CCOC(=O)C(=O)C(C)C(=O)OCC` (stereo unspecified) [DIETHYL 2-METHYL-3-OXOSUCCINATE]: the figures for the LC retention time in series [1] and in series [3] were 6.29 min and 4.92 min, respectively.
`Cc1cn(C2CC(O)C(COP(=O)(O)OP(=O)(O)OC3OC(CO)C(O)C(O)C3O)O2)c(=O)[nH]c1=O` [DTDP-D-GLUCOSE]: the LC retention time in series [2] was 0.667 min.
Consider `CCCCCCCCC=CCCCCCCCCCCCC(=O)O` [ERUCATE], for which the LC retention time in series [2] was 17.8 min; in series [3], 18.2 min.
The corresponding values for `OCC(O)C(O)CO` (stereo unspecified) [ERYTHRITOL] are 0.87 min and 0.997 min.
Consider `Cc1cc2nc3c(=O)[nH]c(=O)nc-3n(CC(O)C(O)C(O)COP(=O)(O)OP(=O)(O)OCC3OC(n4cnc5c(N)ncnc54)C(O)C3O)c2cc1C` (stereo unspecified) [FAD], for which the values for the LC retention time in series [1], in series [2] and in series [3] were 4.67 min, 3.63 min and 3.77 min, respectively.
The corresponding values for `CCCCCC=CCC=CCC=CCCCCC(=O)O` [GAMMA-LINOLENATE] are 16.2 min, 14.1 min and 14.5 min.
Turning to `Nc1nc2c(ncn2C2OC(COP(=O)(O)OP(=O)(O)OC3OC(CO)C(O)C(O)C3O)C(O)C2O)c(=O)[nH]1` (stereo unspecified) [GUANOSINE DIPHOSPHATE MANNOSE], the LC retention time in series [3] was 0.757 min.
Consider `Nc1nc2c(ncn2C2OC(CO)C(O)C2O)c(=O)[nH]1` (stereo unspecified) [GUANOSINE], for which the LC retention time in series [1] is 1.36 min; in series [4], 1.37 min; in series [5] it was 0.667 min; in series [6], 0.89 min; in series [7] it was 1.09 min; in series [3] it was 0.757 min.
`CCCCCCC(=O)O` [HEPTANOATE]: the LC retention time was 6.69 min in series [1] and 5.36 min in series [3].
For `O=S(=O)(O)Oc1c[nH]c2ccccc12` [INDOXYL SULFATE], the LC retention time in series [2] is 3.2 min; in series [3], 3.57 min.
As to `CC(C)CC(=O)C(=O)O` [KETOLEUCINE], the results for the LC retention time in series [1], in series [2] and in series [3] were 4.65 min, 0.77 min and 0.88 min, respectively.
Regarding `Nc1ccccc1C(=O)CC(N)C(=O)O` (stereo unspecified) [KYNURENINE], in series [2], the LC retention time was 1.05 min.
For the molecule `CCCCCC=CCC=CCCCCCCCC(=O)O` [LINOLEATE], the LC retention time in series [1] was 17 min; in series [5], 13.1 min; in series [3], 15.3 min.
In the case of `COC(=O)c1ccc(O)c(OC)c1` [METHYL VANILLATE], the LC retention time in series [1] is 5.99 min; in series [2], 3.63 min; in series [3], 3.91 min.
On the same counts, the results for `COC(=O)CCCC(=O)O` [MONOMETHYLGLUTARATE] are 3.99 min, 2.02 min and 2.33 min.
For `CC(=O)NC(CCC(=O)O)C(=O)O` (stereo unspecified) [N-ACETYLGLUTAMATE], the LC retention time in series [1] was 1.35 min; in series [4], 1.36 min; in series [6], 0.897 min; in series [7], 1.06 min.
Regarding `CCCCCCCCC(=O)[O-]` [NONANOATE], the LC retention time is 11.7 min in series [1]; 11.7 min in series [4]; 9.85 min in series [5]; 10.5 min in series [6]; 11.1 min in series [7].
For the molecule `CCCCCCC=CCCCCCCCC(=O)[O-]` [PALMITOLEATE], the LC retention time in series [1] was 16.7 min; in series [4], 16.7 min; in series [5], 14.6 min; in series [2] it was 14.5 min; in series [6], 15.3 min; in series [7], 15.9 min.
Regarding `c1ncc2[nH]cnc2n1` [PURINE], the LC retention time in series [1] was 1.34 min; in series [4] it was 1.35 min; in series [7], 1.07 min; in series [3], 0.757 min.
As for `Oc1ccccc1O` [PYROCATECHOL], the LC retention time in series [5] was 1.55 min; in series [2], 1.52 min; in series [7], 3.05 min; in series [3], 1.78 min.
As for `O=C(O)c1cccnc1C(=O)O` [QUINOLINATE], the LC retention time in series [1] was 1.38 min; in series [4], 1.38 min; in series [6], 0.937 min; in series [7], 1.07 min.

Values taken from the RepoRT retention time repository (doi:10.1007/s00216-021-03828-0).
